In publication PMC11217295, “The immune response to RNA suppresses nucleic acid synthesis by limiting ribose 5-phosphate” (The EMBO Journal, 2024):

Target: Ribose 5-Phosphate Isomerase A (RPIA) (Homo sapiens, UniProt P49247)
Assay: continuous spectrophotometric isomerase assay with recombinant RPIA
Assay type: biochemical
Parameters: recombinant Streptavidin-tagged human RPIA expressed in E. coli
Text: continuous spectrophotometric isomerase assay with recombinant RPIA on Ribose 5-Phosphate Isomerase A (RPIA) | validated its activity against the human isomerase in a continuous spectrophotometric assay.

Sequence of Ribose 5-Phosphate Isomerase A (RPIA) (P49247 whole entry): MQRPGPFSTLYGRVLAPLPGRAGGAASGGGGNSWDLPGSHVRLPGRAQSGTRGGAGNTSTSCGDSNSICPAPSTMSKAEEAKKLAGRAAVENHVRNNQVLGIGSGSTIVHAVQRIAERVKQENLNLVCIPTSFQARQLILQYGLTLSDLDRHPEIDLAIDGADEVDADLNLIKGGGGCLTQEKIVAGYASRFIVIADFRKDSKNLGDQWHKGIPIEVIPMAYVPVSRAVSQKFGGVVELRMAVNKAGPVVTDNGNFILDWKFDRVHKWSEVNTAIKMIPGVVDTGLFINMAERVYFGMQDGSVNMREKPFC

SMILES: O=C(NO)[C@H](O)[C@H](O)COP(=O)(O)O [JNB-hu20-057-2A]
- continuous spectrophotometric isomerase assay with recombinant RPIA: validated its activity against the human isomerase in a continuous spectrophotometric assay. This shows the inhibitor suppresses the activity
